Measurements as given in patent US6673938B1, “Substituted pyridine herbicides” (Syngenta Participations AG, priority 1998, dated 2004).

Tests used:
[1] = system: Monocotyledonous and dicotyledonous test plants; test: Herbicidal action before emergence of the plants (pre-emergence action); type: in vivo; conditions: 2000 g/ha, evaluated after 3 weeks, nine-step scale
In short: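 Sprayed onto soil immediately after sowing as WP suspension or EC emulsion at 2 kg or 250 g a.i./ha (500 l water/ha). Greenhouse growth for 3 weeks, then scored on a nine-step scale (1 = complete damage, 9 = no effect).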

[2] = system: Monocotyledonous and dicotyledonous test plants; test: Post-emergence herbicidal action; type: in vivo; conditions: 2000 g/ha, sprayed in 4- to 6-leaf stage, evaluated after approximately 18 days, nine-step scale
In short: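 Greenhouse plants sprayed at the 4- to 6-leaf stage with test substance as wettable-powder suspension or emulsion-concentrate emulsion, 2 kg or 250 g a.i./ha in 500 l water/ha. Scored after about 18 days on a nine-step scale (1=complete damage, 9=no effect).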

| SMILES | melting point | pre-emergence action, Cyperus [1] | pre-emergence action, Ipomoea [1] | pre-emergence action, Setaria [1] | pre-emergence action, Sinapis [1] | pre-emergence action, Solanum [1] | pre-emergence action, Stellaria [1] | Post-emergence action, Ipomoea [2] | Post-emergence action, Lolium [2] | Post-emergence action, Setaria [2] | Post-emergence action, Sinapis [2] | Post-emergence action, Solanum [2] | Post-emergence action, Stellaria [2] |
| --- | --- | --- | --- | --- | --- | --- | --- | --- | --- | --- | --- | --- | --- |
| CC1(C)C(=O)C(C(=O)c2ccc(C(F)(F)F)nc2CBr)=C(Cl)C(C)(C)C1=O [Compound A1029-B1105, 4-(2-Bromomethyl-6-trifluoromethylpyridine-3-carbonyl)-5-chloro-2,2,6,6-tetramethylcyclohex-4-ene-1,3-dione] | 94.5 to 95 °C |  |  |  |  |  |  |  |  |  |  |  |  |
| COC(=O)C1(C)CCC(=O)C(C(=O)c2ccc(C(F)(F)Cl)nc2C)=C1O (centres unmarked) [Compound A94-B34, methyl 3-[6-(chlorodifluoromethyl)-2-methylpyridine-3-carbonyl]-2-hydroxy-1-methyl-4-oxocyclohex-2-enecarboxylate] | 108 to 110 °C |  |  |  |  |  |  |  |  |  |  |  |  |
| Cc1nc(C(F)(F)F)ccc1C(=O)C1=C(Cl)C(C)(C)C(=O)C(C)(C)C1=O [Compound A2-B1105, 5-Chloro-2,2,6,6-tetramethyl-4-(2-methyl-6-trifluoromethylpyridine-3-carbonyl)cyclohex-4-ene-1,3-dione] | 119 °C |  |  |  |  |  |  |  |  |  |  |  |  |
| Cc1nc(C(F)(F)F)ccc1C(=O)C1=C(S(=O)(=O)c2ccccc2)CCCC1=O [Compound A2-B1104, 3-Benzenesulfonyl-2-(2-methyl-6-trifluoromethylpyridine-3-carbonyl)cyclohex-2-enone] | 165 to 167 °C |  |  |  |  |  |  |  |  |  |  |  |  |
| Cc1nc(C(F)(F)F)ccc1C(=O)C1=C(Sc2ccccc2)CCCC1=O [Compound A2-B1102, 2-(2-methyl-6-trifluoromethylpyridine-3-carbonyl)-3-phenylsulfanylcyclohex-2-enone] | 124 to 125 °C |  |  |  |  |  |  |  |  |  |  |  |  |
| CSC1(C)CC(C)C(=O)C(C(=O)c2ccc(C(F)(F)F)nc2C)=C1O (centres unmarked) [Compound A2-B73] |  | 3 | 4 | 2 | 2 | 2 | 2 | 1 | 3 | 2 | 1 | 1 | 2 |
| Cc1nc(C(F)(F)F)ccc1C(=O)C1=C(O)C(C)CC(C)C1=O (stereo not drawn) [A2-B46 (trans)] |  | 1 | 2 | 1 | 2 | 1 | 2 | 1 | 2 | 2 | 1 | 1 | 2 |
| Cc1nc(C(F)(F)F)ccc1C(=O)C1=C(O)CCC2(CC2)C1=O [Compound A2-C1] |  | 2 | 3 | 1 | 2 | 1 | 2 | 3 | 2 | 2 | 1 | 2 | 2 |
| Cc1nc(C(F)(F)F)ccc1C(=O)C1=C(O)C(C)(S(C)(=O)=O)C2CC2C1=O (centres unmarked) [Compound A2-D115] |  | 3 | 3 | 2 | 2 | 2 | 3 | 1 | 2 | 1 | 1 | 1 | 1 |
| CCOC(=O)C1(C)CCC(=O)C(C(=O)c2ccc(C(F)(F)F)nc2C)=C1O (centres unmarked) [Compound A2-B35] |  | 2 | 4 | 2 | 2 | 2 | 2 | 1 | 3 | 2 | 1 | 1 | 2 |
| Cc1nc(C(F)(F)F)ccc1C(=O)C1=C(O)C(C)(S(C)(=O)=O)CCC1=O (centres unmarked) [Compound A2-B31] |  | 2 | 3 | 4 | 2 | 1 | 2 | 2 | 2 | 2 | 1 | 2 | 2 |
| CC1(C)CCC(=O)C(C(=O)c2ccc(C(F)(F)F)nc2C(F)F)=C1O [Compound A18-B24] |  | 1 | 1 | 1 | 1 | 1 | 2 | 1 | 2 | 2 | 1 | 2 | 2 |
| COC1(C)CCC(=O)C(C(=O)c2ccc(C(F)(F)F)nc2C)=C1O (centres unmarked) [Compound A2-B33] |  | 1 | 3 | 2 | 2 | 1 | 3 | 2 | 4 | 2 | 1 | 2 | 2 |
